This is an account of results in patent US20100056516A1 (priority 2006, published 2010).

The target of one data set is HIV integrase (Human immunodeficiency virus type 1 group M subtype B, UniProt P04585). Put plainly: integrase strand transfer assay (STA). The format is biochemical. To be noted: for IC50: STA (IC50, μM).
In data set [1] the target is HIV-1 reverse transcriptase (RNase H) (Human immunodeficiency virus type 1 group M subtype B, UniProt P04585). Put plainly: ASH assay: RNase H mediated RNA cleavage (ECL format, BioVeris M384). The format is biochemical. As to the method:
Potency of a substance as an RNase H inhibitors can be determined by measuring its ability prevent RNase H catalyzed cleavage of the RNA strand in a RNA/DNA hybrid duplex substrate. RNase H activity is measured using a substrate generated by annealing the oligoribo-nucleotide 5′-rCrCrUrCrUrCrArArArArArCrArGrGrArGrCrArGrArArArGrArCrArArG (SEQ ID NO:1) to the oligodeoxyribonucleotide 5′-Biotin-[…] (SEQ ID NO:2). […] (SEQ ID NO:3). The resulting double-stranded duplex DNA product is quantitated in an ALPHA screen format using [streptavidin- and anti-fluorescein-coated beads (Packard Bioscience) following the manufacturer's guidelines and reading on a Fusion AlphaScreen instrument. Alternatively, the released 5′-Biotinylated DNA is annealed to a complementary oligodeoxyribonucleotide: 5′-ruthenium-[…] (SEQ ID NO:3). The resulting double-stranded duplex DNA product is quantitated in an ECL screen format using Dynabeads M280 coated with streptavidin (BioVeris Corporation) following the manufacturer's guidelines and reading on a BioVeris M384 Analyzer.

A further data set has as its system HeLa P4-2 cell line. To be noted: human. An excerpt:
The HeLa P4-2 cell line used in the single cycle HIV infectivity Assay B of Example 270 was also used to determine compound cytotoxicity in the absence of viral infection.

The test system of a further data set is HXB2 virus. Put plainly: microbe, parasite or virus in culture. To be noted: for IC50: Human immunodeficiency virus 1, HXB2, HeLaP4-2, read-out: SCIA-B (IC50, μM); for pIC50: Human immunodeficiency virus 1, HXB2, HeLaP4-2, read-out: antiviral IC50 (SCIA-B). The format is cell-based, HIV. The essentials: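 HXB2 virus used to infect HeLa P4-2 cells in a single-cycle format; inhibition of acute infection is measured.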

Where [2] appears, read: IC50 in the STA assay, integrase strand transfer.
Setting [3] is: integrase strand-transfer assay, Example 269.
The mark [4] stands for this setting: integrase strand transfer, read-out: IC50 in the STA assay.
Where [5] appears, read: integrase strand-transfer assay, Example 269, read-out: STA (IC50).
The mark [6] stands for this setting: RNase H mediated RNA cleavage assay, Example 269, read-out: ASH (IC50).

pIC50: −log10 of the molar value. Read-outs that look alike come from different tables or passages of the source. A value given as a limit tells only on which side of the number the result lay.

For the compound `O=c1c(-c2ccccn2)c(O)c2cccnc2n1O` [Example 27, 1,4-Dihydroxy-3-pyridin-2-yl-1,8-naphthyridin-2(1B)-one], the pIC50 on HIV integrase (setting [2]) was over 4.30; in data set [1] it was 7.00; with HXB2 virus it was over 4.00. For the same compound, the results for the IC50 on HIV integrase (setting [3]) and in the data set with HXB2 virus were 0.06 µM and 0.5 µM, respectively. Also, in the data set on HeLa P4-2 cell line, the “Cytotoxicity (LD50, μM)” value came to 6.2 µM.
For `O=c1c(-c2cccc(C(F)(F)F)c2)c(O)c2cccnc2n1O` [Example 28, 1,4-Dihydroxy-3-[3-(trifluoromethyl)phenyl]-1,8-naphthyridin-2(1H)-one], the pIC50 was over 4.30 at HIV integrase (setting [4]), 6.59 at HIV integrase (setting [5]), 6.92 in data set [1] (setting [6]) and over 4.00 in the data set on HXB2 virus. For the same compound, in the data set with HeLa P4-2 cell line, the “Cytotoxicity (LD50, μM)” value was over 100 µM. In the data set on HXB2 virus, the IC50 was 0.22 µM.
As to `COc1ccc(CNc2cc(=O)n(O)c3ncccc23)cc1` [Example 140, 1-hydroxy-4-[(4-methoxybenzyl)amino]-1,8-naphthyridin-2(1H-one)], the results for the negative-log IC50 (pIC50) (against HIV integrase (setting [2]); in data set [1]; in the data set on HXB2 virus) were over 4.30, 6.96 and over 4.00, respectively. In addition, the figures for the IC50 at HIV integrase (setting [3]) and in the data set on HXB2 virus were 0.22 µM and 0.09 µM, respectively. In addition, the “Cytotoxicity (LD50, μM)” value in the data set on HeLa P4-2 cell line was 5 µM.
Turning to `O=c1c(Cc2ccccc2)c(O)c2cc(Cc3ccccc3)cnc2n1O` [Example 66, 3,6-Dibenzyl-l,4-dihydroxy-1,8-naphthyridin-2(1H)-one], the pIC50 was over 4.30 at HIV integrase (setting [4]), 7.70 on HIV integrase (setting [5]), 6.31 in data set [1] (setting [6]) and over 4.00 in the data set with HXB2 virus. Further, the “Cytotoxicity (LD50, μM)” value in the data set with HeLa P4-2 cell line came out at 34 µM. Also, the IC50 with HXB2 virus came to 0.38 µM.
`C[C@H](Nc1cc(=O)n(O)c2ncccc12)c1ccccc1` [Example 124, 1-hydroxy-4-{[(1S)-1-phenylethyl]amino}-1,8-naphthyridin-2(1H)-one]: the results for the pIC50 (against HIV integrase (setting [2]); in data set [1]; in the data set on HXB2 virus) were over 4.30, 6.64 and over 4.00, respectively. The figures for the IC50 against HIV integrase (setting [3]) and with HXB2 virus were 0.66 µM and 0.16 µM, respectively. For the same compound, the “Cytotoxicity (LD50, μM)” value with HeLa P4-2 cell line amounted to 50 µM.
Turning to `O=c1cc(NCc2cccc(CN3CCOCC3)c2)c2cccnc2n1O` [Example 151, 1-hydroxy-4-{[3-(4-morpholinylmethyl)benzyl]amino}-1,8-naphthyridin-2(1H-one)], the pIC50 was over 4.30 at HIV integrase (setting [2]), 6.80 in data set [1] and over 4.00 with HXB2 virus. In addition, the results for the IC50 at HIV integrase (setting [3]) and with HXB2 virus were 0.23 µM and 0.13 µM, respectively. For the same compound, in the data set on HeLa P4-2 cell line, the “Cytotoxicity (LD50, μM)” value was found to be 15 µM.
Regarding `O=c1cc(Nc2ccccc2N2CCOCC2)c2cccnc2n1O` [Example 147, 1-hydroxy-4-{[2-(4-morpholinyl)phenyl]amino}-1,8-naphthyridin-2(1H-one)], the pIC50 was over 4.30 on HIV integrase (setting [2]), 7.77 in data set [1] and over 4.00 in the data set on HXB2 virus. In addition, the IC50 at HIV integrase (setting [3]) is 0.22 µM; in the data set on HXB2 virus, 0.2 µM. In addition, the “Cytotoxicity (LD50, μM)” value in the data set on HeLa P4-2 cell line was 7.7 µM.
Regarding `O=c1cc(Nc2ccc(-c3ccccc3)cc2)c2cccnc2n1O` [Example 106, 4-(Biphenyl-4-ylamino)-1-hydroxy-1,8-naphthyridin-2(1H)-one], the pIC50 against HIV integrase (setting [2]) is over 4.30; in data set [1], 7.06; with HXB2 virus, over 4.00. For the same compound, the IC50 stood at 0.22 µM at HIV integrase (setting [3]) and 0.43 µM in the data set on HXB2 virus. The “Cytotoxicity (LD50, μM)” value with HeLa P4-2 cell line came out at 12 µM.
As for `O=c1cc(NC2CCN(c3ccccc3)CC2)c2cccnc2n1O` [Example 154, 1-hydroxy-4-[(1-phenyl-4-piperidinyl)amino]-1,8-naphthyridin-2(1H-one)], the pIC50 against HIV integrase (setting [2]) was over 4.30; in data set [1] it was 6.70; in the data set on HXB2 virus, over 4.00. Besides, the IC50 against HIV integrase (setting [3]) is 1.7 µM; in the data set on HXB2 virus, 0.27 µM. Further, in the data set with HeLa P4-2 cell line, the “Cytotoxicity (LD50, μM)” value is 7.2 µM.
With `NCc1cccc(-c2cc(=O)n(O)c3ncccc23)c1` [Example 172, 4-[3-(aminomethyl)phenyl]-1-hydroxy-1,8-naphthyridin-2(1H)-one], the pIC50 against HIV integrase (setting [2]) is over 4.30; in data set [1] it was 6.85; with HXB2 virus, over 4.00. Moreover, the results for the IC50 at HIV integrase (setting [3]) and with HXB2 virus were 0.22 µM and 0.26 µM, respectively. Further, the “Cytotoxicity (LD50, μM)” value in the data set on HeLa P4-2 cell line came to 5.5 µM.
In the case of `CCOC(=O)c1c(O)c2c(-c3cccc(CN(C)C)c3)ccnc2n(O)c1=O` [Example 230, ethyl 5-{3-[(dimethylamino)methyl]phenyl}-1,4-dihydroxy-2-oxo-1,2-dihydro-1,8-naphthyridine-3-carboxylate], the pIC50 at HIV integrase (setting [4]) is over 4.30; on HIV integrase (setting [5]), 5.64; in data set [1] (setting [6]), 6.96; in the data set on HXB2 virus it was over 4.00. Also, in the data set with HeLa P4-2 cell line, the “Cytotoxicity (LD50, μM)” value is over 100 µM. Besides, in the data set with HXB2 virus, the IC50 is 0.77 µM.
Consider `O=c1c(-c2cccc(Cl)c2)c(O)c2cccnc2n1O` [Example 33, 3-(3-Chlorophenyl)-1,4-dihydroxy-1,8-naphthyridin-2(1H)-one], for which the pIC50 on HIV integrase (setting [4]) is over 4.30; at HIV integrase (setting [5]) it was 6.74; in data set [1] (setting [6]) it was 7.33; in the data set with HXB2 virus it was over 4.00. The “Cytotoxicity (LD50, μM)” value in the data set on HeLa P4-2 cell line is over 100 µM. Besides, the IC50 in the data set on HXB2 virus was determined as 0.66 µM.
For the compound `CN1CCN(Cc2cccc(CNc3cc(=O)n(O)c4ncccc34)c2)CC1` [Example 150, 1-hydroxy-4-({3-[(4-methyl-1-piperazinyl)methyl]benzyl}amino)-1,8-naphthyridin-2(1H-one)], the pIC50 was over 4.30 against HIV integrase (setting [2]), 6.82 in data set [1] and over 4.00 in the data set on HXB2 virus. Further, the half-inhibitory concentration (IC50) at HIV integrase (setting [3]) was found to be 1.7 µM; in the data set on HXB2 virus it was 0.07 µM. Further, the “Cytotoxicity (LD50, μM)” value in the data set on HeLa P4-2 cell line is 14 µM.
`O=c1cc(Cc2ccc(CCc3ccc(F)cc3F)cc2)c2cccnc2n1O` [Example 236, 4-{4-[2-(2,4-difluorophenyl)ethyl]benzyl}-1-hydroxy-1,8-naphthyridin-2(1H)-one]: the pIC50 on HIV integrase (setting [2]) was over 4.30; in data set [1], 6.92; with HXB2 virus, over 4.00. Moreover, the figures for the IC50 at HIV integrase (setting [3]) and with HXB2 virus were 0.05 µM and 0.26 µM, respectively. Besides, in the data set on HeLa P4-2 cell line, the “Cytotoxicity (LD50, μM)” value came out at 21 µM.
As to `CN(C)CCC(Nc1cc(=O)n(O)c2ncccc12)c1ccccc1` (stereo not drawn) [Example 158, 4-{[3-(dimethylamino)-1-phenylpropyl]amino}-10hydroxy-1,8-naphthyridin-2(1H-one)], the figures for the pIC50 (at HIV integrase (setting [2]); in data set [1]; in the data set with HXB2 virus) were over 4.30, 6.44 and over 4.00, respectively. Also, the IC50 at HIV integrase (setting [3]) amounted to 6.5 µM; in the data set on HXB2 virus, 0.24 µM. The “Cytotoxicity (LD50, μM)” value in the data set on HeLa P4-2 cell line was found to be 16 µM.
For the compound `NCc1cccc(-c2cccc(Cc3cc(=O)n(O)c4ncccc34)c2)c1` [Example 231, 4-{[3′-(aminomethyl)biphenyl-3-yl]methyl}-1-hydroxy-1,8-naphthyridin-2(1 H)-one], the pIC50 at HIV integrase (setting [4]) was over 4.30; on HIV integrase (setting [5]), 5.96; in data set [1] (setting [6]), 6.47; with HXB2 virus, over 4.00. For the same compound, the “Cytotoxicity (LD50, μM)” value in the data set on HeLa P4-2 cell line was determined as 10 µM. In addition, the IC50 in the data set on HXB2 virus worked out at 0.29 µM.
On to `O=c1cc(NC2CCCc3ccccc32)c2cccnc2n1O` (stereo not drawn) [Example 135, 1-hydroxy-4-(1,2,3,4-tetrahydronaphthalen-1-ylamino)-1,8-naphthyridin-2(1H)-one], for which the results for the pIC50 (on HIV integrase (setting [2]); in data set [1]; in the data set on HXB2 virus) were over 4.30, 7.21 and over 4.00, respectively. Further, the IC50 at HIV integrase (setting [3]) came out at 0.19 µM; with HXB2 virus, 0.5 µM. The “Cytotoxicity (LD50, μM)” value in the data set with HeLa P4-2 cell line is over 100 µM.
